According to patent publication US20070128217A1 (priority 2003, published 2007):

Experiments:
[1] = tested on: control sera (pooled serum of ten healthy LUMC hospital workers; commercial negative donor pooled serum from the Dutch bloodbank); format: binding, human; set-up: Binding of Control serum LUMC to linear peptides / Binding of Control serum Blood-bank to linear peptides / Binding of Control serum LUMC to looped peptides / Binding of Control Serum Blood-Bank to Looped peptides / Binding of Control serum LUMC to linear peptides of the protein M of SARS-CoV Urbani / Binding of Control serum Blood-bank to linear peptides of the protein M of SARS-CoV Urbani / Binding of Control serum LUMC to looped peptides of the protein M of SARS-CoV Urbani / Binding of Control Serum Blood-Bank to Looped peptides of the protein M of SARS-CoV Urbani: unit not given here
[2] = tested on: antibodies in sera from SARS patients (sera 1a, 1b, 2, 6, 37, 62, London, SARS-yellow, SARS-green); format: binding, human; set-up: Binding of serum 6 to linear peptides of protein X1 of SARS-CoV Urbani / Binding of serum 37 to linear peptides of protein X1 of SARS-CoV Urbani / Binding of serum 6 to looped/cyclic peptide (PEPSCAN-ELISA) / Binding of serum 37 to looped/cyclic peptide (PEPSCAN-ELISA) / Binding of serum 37 to looped/cyclic peptides of protein X1 of SARS-CoV Urbani / Binding of serum 6 to linear peptides of protein X2 / Binding of serum 37 to linear peptides of protein X2 / Binding of serum 37 to looped/cyclic peptides of protein X2 of SARS-CoV Urbani / Binding of serum 6 to linear peptides of protein M of SARS-CoV Urbani / Binding of serum 37 to linear peptides of protein M of SARS-CoV Urbani / Binding of serum 6 to looped/cyclic peptides of protein M of SARS-CoV Urbani / Binding of serum 37 to looped/cyclic peptides of protein M of SARS-CoV Urbani / Binding of serum 6 to linear peptides of protein X3 of SARS-CoV Urbani / Binding of serum 37 to linear peptides of protein X3 of SARS-CoV Urbani / Binding of serum 37 to looped/cyclic peptides of protein X3 of SARS-CoV Urbani / Binding of serum 6 to linear peptides of protein X4 of SARS-CoV Urbani / Binding of serum 37 to linear peptides of protein X4 of SARS-CoV Urbani / Binding of serum 37 to looped/cyclic peptides of protein X4 of SARS-CoV Urbani / Binding of serum 6 to linear peptides of protein X5 of SARS-CoV Urbani / Binding of serum 37 to linear peptides of protein X5 of SARS-CoV Urbani / Binding of serum 37 to looped/cyclic peptides of protein X5 of SARS-CoV Urbani / Binding of serum 6 to linear peptides of protein N of SARS-CoV Urbani / Binding of serum 37 to linear peptides of protein N of SARS-CoV Urbani / Binding of serum 6 to linear peptide (PEPSCAN-ELISA) / Binding of serum 1a to looped/cyclic peptides of protein N of SARS-CoV Urbani / Binding of serum 1b to looped/cyclic peptides of protein N of SARS-CoV Urbani / Binding of serum 2 to looped/cyclic peptides of protein N of SARS-CoV Urbani / Binding of serum 6 to looped/cyclic peptides of protein N of SARS-CoV Urbani / Binding of serum 37 to looped/cyclic peptides of protein N of SARS-CoV Urbani / Binding of serum 62 to looped/cyclic peptides of protein N of SARS-CoV Urbani / Binding of serum London to looped/cyclic peptides of protein N of SARS-CoV Urbani / Binding of serum SARS-green to looped/cyclic peptides of protein N of SARS-CoV Urbani: unit not given here
[3] = tested on: rabbit serum obtained by immunizing a rabbit with the SARS-CoV strain Frankfurt 1; format: binding; set-up: Binding of a rabbit serum to linear peptides / Binding of a rabbit serum to looped peptides / Rabbit serum linear peptides / Rabbit serum looped peptides / Binding of a rabbit serum to linear peptides of protein N of SARS-CoV Urbani (Rabbit serum linear peptides) / Binding of a rabbit serum to looped/cyclic peptides of protein N of SARS-CoV Urbani (Rabbit serum looped peptides): unit not given here
[4] = tested on: recombinant human anti-SARS-CoV antibody 03-018; format: binding; set-up: Binding of antibody 03-018 to linear peptides of the N protein of SARS-CoV Urbani / Binding of antibody 03-018 to looped/cyclic peptides of the N protein of SARS-CoV Urbani: unit not given here

Sequence	Binding of Control Serum Blood-Bank to Looped peptides [1]	Binding of Control serum Blood-bank to linear peptides [1]	Binding of Control serum LUMC to linear peptides [1]	Binding of Control serum LUMC to looped peptides [1]	Binding of serum 1a to linear peptide (PEPSCAN-ELISA) [2]	Binding of serum 1a to looped/cyclic peptides of protein N of SARS-CoV Urbani [2]	Binding of serum 1b to linear peptide (PEPSCAN-ELISA) [2]	Binding of serum 1b to looped/cyclic peptides of protein N of SARS-CoV Urbani [2]	Binding of serum 2 to linear peptide (PEPSCAN-ELISA) [2]	Binding of serum 2 to looped/cyclic peptides of protein N of SARS-CoV Urbani [2]	Binding of serum 6 to looped/cyclic peptides of protein N of SARS-CoV Urbani [2]	Binding of serum 37 to looped/cyclic peptides of protein N of SARS-CoV Urbani [2]	Binding of serum 62 to looped/cyclic peptides of protein N of SARS-CoV Urbani [2]	Binding of serum London to looped/cyclic peptides of protein N of SARS-CoV Urbani [2]	Binding of serum SARS-green to looped/cyclic peptides of protein N of SARS-CoV Urbani [2]	Binding of serum SARS-yellow to looped/cyclic peptides of protein N of SARS-CoV Urbani [2]	Binding of a rabbit serum to linear peptides of protein N of SARS-CoV Urbani (Rabbit serum linear peptides) [3]	Binding of a rabbit serum to looped/cyclic peptides of protein N of SARS-CoV Urbani (Rabbit serum looped peptides) [3]	Binding of antibody 03-018 to linear peptides of the N protein of SARS-CoV Urbani [4]	Binding of antibody 03-018 to looped/cyclic peptides of the N protein of SARS-CoV Urbani [4]	further results
ASSRSSSRSRGNSRN	0.6	0.6	0.7	0.6	0.2	0.3	0.1	0.2	0.2	0.4	0.3	0.6	0.5	0.4	0.2	0.4	0.3	0.7	0.1	0.2	Binding of serum 6 to linear peptide (PEPSCAN-ELISA) [2]: 0.2; Binding of serum 37 to linear peptide (PEPSCAN-ELISA) [2]: 0.6; Binding of serum 62 to linear peptide (PEPSCAN-ELISA) [2]: 0.5; Binding of serum London to linear peptide (PEPSCAN-ELISA) [2]: 0.5; Binding of serum SARS-green to linear peptide (PEPSCAN-ELISA) [2]: 0.3; Binding of serum SARS-yellow to linear peptide (PEPSCAN-ELISA) [2]: 0.7
DDQIGYYRRATRRVR	0.8	1.0	1.0	0.8		0.4		0.2		0.5	0.4	0.9	0.7	0.5	0.4	0.5			0.1	0.3	Binding of serum 1a to linear peptides of protein N of SARS-CoV Urbani [2]: 0.3; Binding of serum 1b to linear peptides of protein N of SARS-CoV Urbani [2]: 0.1; Binding of serum 2 to linear peptides of protein N of SARS-CoV Urbani [2]: 0.3; Binding of serum 6 to linear peptides of protein N of SARS-CoV Urbani [2]: 0.3; Binding of serum 37 to linear peptides of protein N of SARS-CoV Urbani [2]: 0.7; Binding of serum 62 to linear peptides of protein N of SARS-CoV Urbani [2]: 0.9; Binding of serum London to linear peptides of protein N of SARS-CoV Urbani [2]: 0.7; Binding of serum SARS-green to linear peptides of protein N of SARS-CoV Urbani [2]: 0.6; Binding of serum SARS-yellow to linear peptides of protein N of SARS-CoV Urbani [2]: 0.6; Recognition of the peptide by the rabbit serum [3]: recognized
SRGNSPARMASGGGE	0.5	0.8	0.8	0.4	0.3	0.2	0.2	0.1	0.1	0.2	0.1	0.4	0.3	0.3	0.2	0.1	0.1	0.2	0.1	0.2	Binding of serum 6 to linear peptide (PEPSCAN-ELISA) [2]: 0.2; Binding of serum 37 to linear peptide (PEPSCAN-ELISA) [2]: 0.6; Binding of serum 62 to linear peptide (PEPSCAN-ELISA) [2]: 0.6; Binding of serum London to linear peptide (PEPSCAN-ELISA) [2]: 0.6; Binding of serum SARS-green to linear peptide (PEPSCAN-ELISA) [2]: 0.2; Binding of serum SARS-yellow to linear peptide (PEPSCAN-ELISA) [2]: 0.6
GQTVTKKSAAEASKK	0.4	0.7	0.7	0.3		0.2		0.1		0.2	0.1	0.4	0.2	0.3	0.0	0.2	0.2	0.2	0.1	0.2	Recognition of the peptide by sera of SARS-CoV infected individuals, and form (linear, looped/cyclic) in which it is recognized [2]: recognized in linear form
KEELRFPRGQGVPIN	0.7	0.8	0.7	0.7		0.4		0.3		0.5	0.4	0.7	0.5	0.7	0.4	0.6	0.1	0.6	0.1	0.3	Binding of serum 1a to linear peptides of protein N of SARS-CoV Urbani [2]: 0.2; Binding of serum 1b to linear peptides of protein N of SARS-CoV Urbani [2]: 0.1; Binding of serum 2 to linear peptides of protein N of SARS-CoV Urbani [2]: 0.3; Binding of serum 6 to linear peptides of protein N of SARS-CoV Urbani [2]: 0.2; Binding of serum 37 to linear peptides of protein N of SARS-CoV Urbani [2]: 0.7; Binding of serum 62 to linear peptides of protein N of SARS-CoV Urbani [2]: 0.6; Binding of serum London to linear peptides of protein N of SARS-CoV Urbani [2]: 0.5; Binding of serum SARS-green to linear peptides of protein N of SARS-CoV Urbani [2]: 0.5; Binding of serum SARS-yellow to linear peptides of protein N of SARS-CoV Urbani [2]: 0.5
